Test results as given in patent US20090233999A1, “COMPOSITIONS AND THERAPEUTIC METHODS INVOLVING ISOFLAVONES AND ANALOGUES THEREOF” (NOVOGEN RESEARCH PTY LTD, priority 1999, published 2009).

Assays:
[1] = test system: mast cells; experiment: UVB psoriasis model: histochemical identification of dermal mast cells; format: in vivo, mouse; details: 20 μM topical; 72 h post-UVB; UVB alone 14.2, unirradiated 9.8
Protocol: Groups of 3 Skh:hr-1 mice were exposed to 3×MEdD of UVB radiation, with and without topical treatments of 20 μM Cpd. 18 immediately and at 24 and 48 h post-UVB. The mice were euthanased and, and mid-dorsal skin samples were taken before and at 72 h after irradiation for histological fixation. The samples were fixed for 6 h in Histochoice and processed and wax-embedded as described above. Sections of 5 μm were cut for histochemical identification of mast cells, by staining with 0.1% toluidine blue solution in McIlvane buffer, pH 3. Positively stained cells with a diameter of 10 μm or more in the dermal compartment were counted under light microscopy (Olympus UPlanApo, Japan) using a at 20× magnification, in 10 sequential non-overlapping fields for each of 3 mice per treatment group, and the average mast cell number per field was obtained. Statistical significance of the differences between groups was determined using Student's t test. All the experiments were performed at least twice, with triplicate skin samples.

[2] = test system: TNFα; experiment: UVB psoriasis model: cutaneous TNFα by ELISA; format: in vivo, mouse; details: for suppression of UVB-induced TNF-α level: 40 μM topical
Excerpt: Inbred, 6-8 weeks of age female C57/BL6, C3H/HeN and Skh:hr-1 (hairless) mice were fed normal stock rodent rations and tap water ad libitum. One day prior to UVB irradiation, the dorsal hair of C57/BL6 and C3H/HeN mice was removed by clipping. A single UVB tube (Phillips TL-40W/12 RS, Eindhoven, The Netherlands) emitting a spectrum of 280-365 nm with a peak emission at 310 nm, was used as the light source for the experiments. The radiation was filtered through a sheet of 0.125 mm cellulose acetate (Grafix Plastics, OH, USA) to block wavelengths below 290 nm. Irradiance was measured with an IL 1500 radiometer (International Light Inc. Newburyport, Mass.) with a UVB detector (SEE 240/UVB) calibrated to the spectral output, and recorded as 1.71×10-4 W/cm2. Groups of three female C57/BL6 and C3H/HeN mice were exposed unrestrained in their cages to 7.24 kJ/m2 UVB radiation equal to 3× the minimal erythemal dose (MED) in these haired mice (fur clipped), an exposure of approximately 70 min. Control mice were clipped of fur in the same manner but were not exposed to UVB irradiation. Groups of 3 Skh:hr-1 mice received 3.59 kJ/m2 of UVB, which is equal to 3×MED on hairless mouse skin. Temperature under the radiation source was stabilised during the exposures with surrounding curtains and an electric fan.
Cpd. 18 was dissolved as a 40 mM stock solution in DMSO, then diluted in a vehicle of propylene glycol-ethanol-water 1:2:1 to provide solutions of 0, 5, 10, 20 and 40 μM with […]. The vehicle control base lotion contained 0.001% DMSO. An aliquot of 100 μL of lotion was applied to the dorsum of three mice immediately, 1 h and 2 h after UVB irradiation for 24 h time point measurements, or once daily immediately after and for up to the next four days following irradiation, for later time points, and was spread evenly using a micropipette. Control mice were restrained in the same manner but were not exposed to UVB irradiation.
To determine the effect of UVB irradiation on cutaneous TNFα expression, groups of three C57/BL6 and C3H/HeN mice were euthanased before and at several time points up to 72 h following UVB irradiation, with and without topical treatment with 20 μM Cpd. 18, and the mid-dorsal skin was excised. […] Colour development was stopped after 30 min with 50 μL of 1M H2SO4, and quantitated spectrophotometrically at 405 nm. […]

[3] = test system: INFγ; experiment: INFγ production by murine splenocytes; format: cell-based, mouse; details: 10 μM; Con A
Protocol: Male Skh-1 (hairless) mice, approximately six weeks old were killed by cervical dislocation. Single cell suspensions were made from the spleen and erythrocytes were lysed in buffer (0.14M NH4Cl, 17 mM Tris, pH 7.2). The remaining splenocytes were cultured in RPMI-1640 (Gibco) supplemented with 10% (v:v) FBS, 2 mM L-glutamine, pen/strep and 50 μM 2-mercaptoethanol. Splenocytes were added to quadruplicate wells containing either the T cell mitogen concanavalin A (Con A, Sigma-Aldrich—0. 4 μg/well), the B-cell mitogen LPS (Sigma-Aldrich—1 μg/well) or no mitogen, as well as test compound at a concentration of 10 μM in DMSO. Samples were analysed after a 3 day incubation at 37° C. in 5% CO2 in air. Cell viability was assessed by adding MTT to each well, incubating for a further 4 hrs and then developing colour with 0.04N HCl in isopropanol. Supernatant samples were frozen at −80° C. and IL-6, IFN-γ and TNFα were detected in triplicate using ELISA kits (BD Biosciences).

| Structure (SMILES) | dermal mast cell number [1] [cells per field] | suppression of UVB-induced TNF-α level ([2]; C3H/HeN, 3 h post-UVB) [%] | suppression of UVB-induced TNF-α level ([2]; C57/BL6, 3 h post-UVB) [%] | UVB-elevated TNFα levels ([2]; 5-40 μM, dose-dependent, each mouse strain, 3 h post-UVB) | TNFα expression, lotion alone ([2]; without UVB) | INFγ synthesis by T cells [3] |
| --- | --- | --- | --- | --- | --- | --- |
| COc1ccc(C2=Cc3ccc(O)cc3OC2)cc1OC [Cpd. 18, 7-Hydroxy-3′,4′-dimethoxyisoflav-3-ene] | 10.0 | 40 | 45 | significantly reduced | no effect | – |
| Oc1ccc(C2=Cc3ccc(O)c(Br)c3OC2)cc1 [Cpd. 20, 4′,7-Dihydroxy-8-bromoisoflav-3-ene] | – | – | – | – | – | marked reduction |
